The record followed here is ChEMBL document CHEMBL4673241, “Cannabitwinol, a Dimeric Phytocannabinoid from Hemp, Cannabis sativa L., Is a Selective Thermo-TRP Modulator” (J Nat Prod, 2020).

One may read the IC50 as the concentration that inhibits the measured activity by half. A word on the EC50: it is the midpoint of the concentration-response curve.

Format in all cases: cell-based
Assay [1] addresses T1, Transient receptor potential cation channel subfamily V member 2 (Rattus norvegicus, UniProt Q9WUD2).
T1 sequence (Q9WUD2 whole entry): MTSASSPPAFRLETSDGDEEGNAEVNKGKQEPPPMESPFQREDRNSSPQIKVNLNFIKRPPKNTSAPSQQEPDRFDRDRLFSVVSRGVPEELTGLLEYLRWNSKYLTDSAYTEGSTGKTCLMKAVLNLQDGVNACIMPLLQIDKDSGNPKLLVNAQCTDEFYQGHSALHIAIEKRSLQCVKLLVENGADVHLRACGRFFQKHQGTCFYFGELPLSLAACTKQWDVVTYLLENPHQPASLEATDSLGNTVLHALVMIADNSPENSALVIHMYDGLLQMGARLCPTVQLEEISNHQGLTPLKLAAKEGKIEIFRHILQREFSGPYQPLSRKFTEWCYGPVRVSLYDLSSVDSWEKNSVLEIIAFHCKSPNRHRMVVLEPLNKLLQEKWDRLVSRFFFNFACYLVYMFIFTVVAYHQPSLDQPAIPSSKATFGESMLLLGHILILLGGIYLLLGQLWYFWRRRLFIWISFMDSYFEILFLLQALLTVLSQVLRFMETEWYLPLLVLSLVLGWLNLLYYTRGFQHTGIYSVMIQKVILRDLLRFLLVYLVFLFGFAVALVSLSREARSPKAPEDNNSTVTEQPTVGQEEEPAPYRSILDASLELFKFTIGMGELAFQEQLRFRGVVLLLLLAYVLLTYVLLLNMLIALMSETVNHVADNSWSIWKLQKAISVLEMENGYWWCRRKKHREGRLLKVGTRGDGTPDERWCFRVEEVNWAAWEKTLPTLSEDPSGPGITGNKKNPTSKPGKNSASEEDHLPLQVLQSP
Put plainly: Antagonist activity at rat TRPV2 expressed in HEK293 cells assessed as inhibition of LPC-induced Ca2+ response preincubated for 5 mins followed by LPC addition by Fluo-4AM dye based fluorescence assay.

Assay [2] deals with T2, Heat sensitive channel TRPV3 (Rattus norvegicus, UniProt Q4QYD9).
T2 sequence (Q4QYD9 whole entry): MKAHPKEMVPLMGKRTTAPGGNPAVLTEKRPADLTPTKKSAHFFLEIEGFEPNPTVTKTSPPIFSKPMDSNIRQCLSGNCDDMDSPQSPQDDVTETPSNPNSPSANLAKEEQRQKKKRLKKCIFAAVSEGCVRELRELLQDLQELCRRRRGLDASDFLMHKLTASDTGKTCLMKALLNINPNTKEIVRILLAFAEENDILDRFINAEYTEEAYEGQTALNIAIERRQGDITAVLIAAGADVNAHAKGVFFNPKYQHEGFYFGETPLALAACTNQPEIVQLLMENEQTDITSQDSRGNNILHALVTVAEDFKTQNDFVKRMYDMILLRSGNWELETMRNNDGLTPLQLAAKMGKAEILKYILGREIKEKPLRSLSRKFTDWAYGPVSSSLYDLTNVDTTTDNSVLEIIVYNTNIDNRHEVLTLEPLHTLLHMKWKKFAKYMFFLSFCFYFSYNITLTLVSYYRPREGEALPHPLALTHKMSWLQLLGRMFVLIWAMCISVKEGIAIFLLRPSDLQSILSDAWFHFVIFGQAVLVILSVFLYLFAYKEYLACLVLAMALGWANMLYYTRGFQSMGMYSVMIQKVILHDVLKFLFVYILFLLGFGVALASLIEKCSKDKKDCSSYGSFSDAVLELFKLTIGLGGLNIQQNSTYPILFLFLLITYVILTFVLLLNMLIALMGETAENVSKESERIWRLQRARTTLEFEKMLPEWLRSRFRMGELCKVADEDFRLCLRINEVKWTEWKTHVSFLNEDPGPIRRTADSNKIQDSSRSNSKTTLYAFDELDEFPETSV
Put plainly: Agonist activity at rat TRPV3 stably transfected in HEK293 cells assessed as increase in calcium influx in presence of ionomycin by Fluo-4-AM dye based spectrofluorimetric method.

The target of assay [3] is Transient receptor potential cation channel subfamily A member 1 (Rattus norvegicus) (UniProt Q6RI86). As to the kind of experiment: Agonist activity at rat TRPA1 stably transfected in HEK293 cells assessed as increase in calcium influx by Fluo-4-AM dye based spectrofluorimetric method relative to allylisothiocyanate. The following applies: filed as agonist.
Chain of Transient receptor potential cation channel subfamily A member 1 (Rattus norvegicus) (Q6RI86 whole entry): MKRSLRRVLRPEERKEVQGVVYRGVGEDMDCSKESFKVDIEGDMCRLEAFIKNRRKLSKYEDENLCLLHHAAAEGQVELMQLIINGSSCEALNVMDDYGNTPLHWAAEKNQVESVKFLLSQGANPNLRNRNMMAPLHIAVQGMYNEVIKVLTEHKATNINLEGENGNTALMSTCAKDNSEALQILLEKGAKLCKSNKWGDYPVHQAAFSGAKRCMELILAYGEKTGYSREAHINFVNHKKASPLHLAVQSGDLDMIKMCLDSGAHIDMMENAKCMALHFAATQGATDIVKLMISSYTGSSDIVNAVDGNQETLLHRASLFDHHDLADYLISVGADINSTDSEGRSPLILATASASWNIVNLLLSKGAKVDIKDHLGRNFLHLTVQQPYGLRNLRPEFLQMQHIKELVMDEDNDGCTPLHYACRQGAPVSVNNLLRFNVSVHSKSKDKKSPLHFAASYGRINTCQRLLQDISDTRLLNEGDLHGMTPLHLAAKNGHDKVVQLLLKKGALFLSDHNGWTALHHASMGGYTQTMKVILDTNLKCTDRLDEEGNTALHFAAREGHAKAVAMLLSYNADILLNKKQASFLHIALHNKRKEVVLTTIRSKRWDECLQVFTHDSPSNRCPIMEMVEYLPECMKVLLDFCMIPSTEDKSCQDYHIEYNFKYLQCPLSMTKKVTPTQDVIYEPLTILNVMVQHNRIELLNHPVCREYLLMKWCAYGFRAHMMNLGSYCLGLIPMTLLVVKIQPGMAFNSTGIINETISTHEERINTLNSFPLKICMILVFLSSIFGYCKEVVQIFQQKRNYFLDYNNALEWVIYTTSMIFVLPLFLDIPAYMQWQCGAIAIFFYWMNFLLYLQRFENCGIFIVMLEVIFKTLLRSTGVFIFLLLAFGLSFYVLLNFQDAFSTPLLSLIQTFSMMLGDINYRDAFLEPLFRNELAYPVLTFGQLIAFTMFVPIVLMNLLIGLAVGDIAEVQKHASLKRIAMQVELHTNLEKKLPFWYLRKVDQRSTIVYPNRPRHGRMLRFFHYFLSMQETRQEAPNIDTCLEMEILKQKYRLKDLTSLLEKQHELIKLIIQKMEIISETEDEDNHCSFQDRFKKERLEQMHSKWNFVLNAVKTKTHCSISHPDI
The target of assay [4] is T3, Transient receptor potential cation channel subfamily V member 2 (Rattus norvegicus) (UniProt Q9WUD2).
T3 sequence (whole entry): T1 sequence (Q9WUD2 whole entry)
As to the kind of experiment: Agonist activity at rat TRPV2 stably transfected in HEK293 cells assessed as increase in calcium influx by Fluo-4-AM dye based spectrofluorimetric method relative to ionomycin.

Assay [5] concerns the target T1, Transient receptor potential cation channel subfamily V member 2. As to the kind of experiment: Agonist activity at rat TRPV2 stably transfected in HEK293 cells assessed as increase in calcium influx in presence of ionomycin by Fluo-4-AM dye based spectrofluorimetric method.
For assay [6], the target named is T4, Transient receptor potential cation channel subfamily V member 4 (Rattus norvegicus, UniProt Q9ERZ8). Put plainly: Agonist activity at rat TRPV4 stably transfected in HEK293 cells assessed as increase in calcium influx in presence of ionomycin by Fluo-4-AM dye based spectrofluorimetric method.
T4 sequence (Q9ERZ8 whole entry): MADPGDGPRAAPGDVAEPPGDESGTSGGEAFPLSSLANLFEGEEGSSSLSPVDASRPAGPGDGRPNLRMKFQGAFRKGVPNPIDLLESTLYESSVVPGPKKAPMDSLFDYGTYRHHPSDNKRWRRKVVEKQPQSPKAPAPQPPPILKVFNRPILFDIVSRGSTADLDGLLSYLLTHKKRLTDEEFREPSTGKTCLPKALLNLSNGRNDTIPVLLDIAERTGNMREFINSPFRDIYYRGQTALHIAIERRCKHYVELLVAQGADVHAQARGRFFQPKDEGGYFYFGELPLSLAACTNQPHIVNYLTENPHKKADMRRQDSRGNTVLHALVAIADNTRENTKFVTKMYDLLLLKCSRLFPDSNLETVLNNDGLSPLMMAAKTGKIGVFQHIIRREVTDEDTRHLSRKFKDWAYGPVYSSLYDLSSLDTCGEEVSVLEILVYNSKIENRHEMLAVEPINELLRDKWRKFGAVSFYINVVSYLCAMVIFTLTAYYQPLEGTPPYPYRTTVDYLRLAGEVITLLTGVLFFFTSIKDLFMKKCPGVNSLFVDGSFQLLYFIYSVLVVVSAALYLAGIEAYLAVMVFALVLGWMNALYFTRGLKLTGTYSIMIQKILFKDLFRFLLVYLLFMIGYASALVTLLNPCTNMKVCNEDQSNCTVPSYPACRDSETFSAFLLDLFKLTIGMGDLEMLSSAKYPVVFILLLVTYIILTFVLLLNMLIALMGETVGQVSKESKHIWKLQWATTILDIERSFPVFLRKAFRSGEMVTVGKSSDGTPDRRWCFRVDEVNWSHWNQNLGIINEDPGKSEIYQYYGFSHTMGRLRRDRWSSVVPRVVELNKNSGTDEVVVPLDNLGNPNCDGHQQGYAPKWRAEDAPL
Assay [7] has as its target Transient receptor potential cation channel subfamily V member 4 (Rattus norvegicus) (UniProt Q9ERZ8). Put plainly: Agonist activity at rat TRPV4 stably transfected in HEK293 cells assessed as increase in calcium influx by Fluo-4-AM dye based spectrofluorimetric method relative to ionomycin.
Assay [8] deals with T5, Transient receptor potential cation channel subfamily V member 1 (Homo sapiens, UniProt Q8NER1). Put plainly: Antagonist activity at human TRPV1 expressed in HEK293 cells assessed as inhibition of capsaicin-induced Ca2+ response preincubated for 5 mins followed by capsaicin addition by Fluo-4AM dye based fluorescence assay.
T5 sequence (Q8NER1 whole entry): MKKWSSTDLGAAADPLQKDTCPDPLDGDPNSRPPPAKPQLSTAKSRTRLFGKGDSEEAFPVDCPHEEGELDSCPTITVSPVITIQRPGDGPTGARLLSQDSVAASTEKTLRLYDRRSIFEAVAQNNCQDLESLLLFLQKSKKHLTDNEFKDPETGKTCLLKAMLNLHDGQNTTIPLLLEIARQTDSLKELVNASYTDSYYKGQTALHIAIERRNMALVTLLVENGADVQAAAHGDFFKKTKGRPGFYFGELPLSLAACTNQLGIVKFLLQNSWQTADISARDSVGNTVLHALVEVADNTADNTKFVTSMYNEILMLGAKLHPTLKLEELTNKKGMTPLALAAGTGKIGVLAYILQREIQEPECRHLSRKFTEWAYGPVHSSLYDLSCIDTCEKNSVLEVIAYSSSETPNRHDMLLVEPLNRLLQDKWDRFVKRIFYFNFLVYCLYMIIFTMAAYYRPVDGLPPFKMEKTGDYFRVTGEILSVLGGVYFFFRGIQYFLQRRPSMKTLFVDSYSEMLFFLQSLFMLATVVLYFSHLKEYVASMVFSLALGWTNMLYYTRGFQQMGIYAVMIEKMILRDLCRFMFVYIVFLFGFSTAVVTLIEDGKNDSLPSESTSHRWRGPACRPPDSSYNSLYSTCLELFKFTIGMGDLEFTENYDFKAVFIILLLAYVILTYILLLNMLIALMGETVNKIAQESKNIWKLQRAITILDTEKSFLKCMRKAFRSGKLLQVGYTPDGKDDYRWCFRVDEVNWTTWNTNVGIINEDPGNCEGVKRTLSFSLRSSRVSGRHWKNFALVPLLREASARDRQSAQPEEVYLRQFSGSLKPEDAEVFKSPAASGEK
The target of assay [9] is T6, Transient receptor potential cation channel subfamily A member 1 (Rattus norvegicus, UniProt Q6RI86). As to the kind of experiment: Antagonist activity at rat TRPA1 expressed in HEK293 cells assessed as inhibition of allylisothiocyanate-induced Ca2+ response preincubated for 5 mins followed by allylisothiocyanate addition by Fluo-4AM dye based fluorescence assay.
T6 sequence (Q6RI86 whole entry): as the sequence (Q6RI86 whole entry) above
Assay [10] has as its target T2, Heat sensitive channel TRPV3. As to the kind of experiment: Antagonist activity at rat TRPV3 expressed in HEK293 cells assessed as inhibition of thymol-induced Ca2+ response preincubated for 5 mins followed by thymol addition by Fluo-4AM dye based fluorescence assay.
Assay [11] has as its target T7, Heat sensitive channel TRPV3 (Rattus norvegicus) (UniProt Q4QYD9).
T7 sequence (whole entry): T2 sequence (Q4QYD9 whole entry)
Put plainly: Agonist activity at rat TRPV3 stably transfected in HEK293 cells assessed as increase in calcium influx by Fluo-4-AM dye based spectrofluorimetric method relative to ionomycin. Particulars: filed as agonist; call rule not given here.

In assay [12] the target is T4, Transient receptor potential cation channel subfamily V member 4. As to the kind of experiment: Antagonist activity at rat TRPV4 expressed in HEK293 cells assessed as inhibition of GSK1016790A-induced Ca2+ response preincubated for 5 mins followed by GSK1016790A addition by Fluo-4AM dye based fluorescence assay.
Assay [13] has as its target T5, Transient receptor potential cation channel subfamily V member 1. Put plainly: Agonist activity at human TRPV1 stably transfected in HEK293 cells assessed as increase in calcium influx by Fluo-4-AM dye based spectrofluorimetric method relative to ionomycin.
The target in assay [14] is Transient receptor potential cation channel subfamily M member 8 (Rattus norvegicus, UniProt Q8R455). As to the kind of experiment: Antagonist activity at rat TRPM8 expressed in HEK293 cells assessed as inhibition of icilin-induced Ca2+ response preincubated for 5 mins followed by icilin addition by Fluo-4AM dye based fluorescence assay.
Chain of Transient receptor potential cation channel subfamily M member 8 (Q8R455 whole entry): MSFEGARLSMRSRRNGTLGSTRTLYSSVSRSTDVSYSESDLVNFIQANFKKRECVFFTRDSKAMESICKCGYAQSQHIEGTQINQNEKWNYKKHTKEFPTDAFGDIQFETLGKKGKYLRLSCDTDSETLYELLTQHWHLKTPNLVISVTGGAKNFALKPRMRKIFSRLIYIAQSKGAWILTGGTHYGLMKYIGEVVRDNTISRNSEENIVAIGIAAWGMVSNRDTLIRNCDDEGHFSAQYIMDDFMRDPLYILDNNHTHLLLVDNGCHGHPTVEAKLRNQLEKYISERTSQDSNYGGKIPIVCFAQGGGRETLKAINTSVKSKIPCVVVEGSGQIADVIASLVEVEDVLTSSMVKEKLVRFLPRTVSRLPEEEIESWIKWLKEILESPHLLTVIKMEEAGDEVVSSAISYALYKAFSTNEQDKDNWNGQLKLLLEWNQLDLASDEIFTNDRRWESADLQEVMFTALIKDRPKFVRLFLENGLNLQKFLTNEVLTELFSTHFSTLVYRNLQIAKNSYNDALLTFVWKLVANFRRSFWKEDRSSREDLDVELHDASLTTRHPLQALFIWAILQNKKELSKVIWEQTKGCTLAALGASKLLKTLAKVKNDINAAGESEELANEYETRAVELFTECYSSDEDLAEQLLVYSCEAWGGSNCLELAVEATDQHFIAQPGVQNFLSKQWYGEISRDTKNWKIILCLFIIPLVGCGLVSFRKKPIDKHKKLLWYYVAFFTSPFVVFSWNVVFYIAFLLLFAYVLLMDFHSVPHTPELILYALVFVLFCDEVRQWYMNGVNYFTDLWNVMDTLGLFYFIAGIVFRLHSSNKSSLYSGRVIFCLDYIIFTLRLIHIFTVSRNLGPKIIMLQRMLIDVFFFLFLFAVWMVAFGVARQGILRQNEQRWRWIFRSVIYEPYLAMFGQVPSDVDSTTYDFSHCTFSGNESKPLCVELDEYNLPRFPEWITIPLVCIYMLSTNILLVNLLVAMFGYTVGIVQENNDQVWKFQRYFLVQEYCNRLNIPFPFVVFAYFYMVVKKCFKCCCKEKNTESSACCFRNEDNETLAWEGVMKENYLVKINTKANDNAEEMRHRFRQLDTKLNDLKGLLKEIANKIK
Assay [15] deals with T5, Transient receptor potential cation channel subfamily V member 1. As to the kind of experiment: Agonist activity at human TRPV1 stably transfected in HEK293 cells assessed as increase in calcium influx in presence of ionomycin by Fluo-4-AM dye based spectrofluorimetric method.
For assay [16], the target named is T6, Transient receptor potential cation channel subfamily A member 1. Put plainly: Agonist activity at rat TRPA1 stably transfected in HEK293 cells assessed as increase in calcium influx in presence of allylisothiocyanate by Fluo-4-AM dye based spectrofluorimetric method.

Chain of Transient receptor potential cation channel subfamily V member 4 (Rattus norvegicus) (Q9ERZ8 whole entry): as the sequence (Q9ERZ8 whole entry) above

Consider `C=C(C)[C@@H]1CCC(C)=C[C@H]1c1c(O)cc(CCCCC)cc1O` [CANNABIDIOL], for which the half-maximal inhibitory concentration (IC50) in [1] stood at 1.1 µM; in assay [8] it was 3.7 µM; in assay [9] it was 0.45 µM; in assay [10] it was 0.75 µM; in assay [12] it was 5.9 µM; in assay [14] it was 2.8 µM. Besides, the EC50 in [2] was found to be 0.51 µM; in assay [5] (read-out: EC50) it was 1.2 µM; in [6], 0.9 µM; in assay [15], 4.1 µM; in assay [16] it was 0.48 µM. Besides, the Efficacy in assay [3] amounted to 109%; in [4] (filed as agonist), 67.5%; in assay [7] it was 15.2%; in assay [11] it was 53.6%; in assay [13] (filed as agonist), 78.4%.

As for `C=C(C)[C@@H]1CCC(C)=C[C@H]1c1c(O)cc(CCCCC)c(Cc2c(CCCCC)cc(O)c([C@@H]3C=C(C)CC[C@H]3C(=C)C)c2O)c1O`, the IC50 in [1] was over 20 µM; in assay [8] it was over 20 µM; in assay [9] it was 4.9 µM; in assay [10], 11.8 µM; in assay [12] it was over 20 µM; in [14] it was 3.9 µM. Also, the 50% effective concentration (EC50) in assay [2] is 4.6 µM; in [5] (hek293), “Not Active”; in [6] it was 6.2 µM; in assay [15], 4.5 µM; in assay [16], 3 µM. In addition, the Efficacy is 96.7% in assay [3]; under 10% in assay [4]; 10.6% in assay [7]; 66.5% in assay [11]; 12.3% in [13].
